Test results published in patent US9907791B2, “Ron inhibitors for use in preventing and treating bone loss” (UNIVERSITY OF UTAH RESEARCH FOUNDATION, priority 2014, dated 2018).

Experiments:
[1] = test system: bone marrow osteoclasts; assay: Osteoclast survival assay; assay type: cell-based, mice; details: 10 μM Src inhibitor daily from day 7 for 48 hours, with MSP
Method: Bone marrow precursor cells were thawed and seeded at a density of 2×10^5 cells per well in a 24-well plate containing glass coverslips in α-MEM media containing 10% FBS and antibiotics. After adhering overnight, media was removed and media containing 33 ng/mL hM-CSF and 9 ng/mL muRANKL was added. Cells were allowed to differentiate for 7 days with media changed every 3 days. Coverslips were then imaged microscopically using phase contrast to determine osteoclast number in each well. To test survival, factor-containing media was removed and α-MEM media containing 10% FBS was added as well as MSP as indicated. Cells were cultured for an additional 48 hours, fixed with 10% NBF for 10 minutes and washed with 1×PBS. For TRAP fluorescent staining, the leukocyte acid phosphatase kit (Sigma, St. Louis, Mo.) was used according to the manufacturer's instructions, with the substitution of 200 μM ELF97 (Invitrogen, Waltham, Mass.) as a phosphatase substrate. Coverslips were incubated in TRAP solution for 15 minutes at 37 degrees, washed with 1×PBS and counterstained with DAPI. The number of multinucleated TRAP+ cells (containing 4 or more nuclei) within 5 representative fields were included for quantification. Experiments were performed in triplicate.

[2] = test system: MSP-overexpressing MDA-MB-231 cells; assay: Intratibial MSP-overexpressing MDA-MB-231 tumor-induced osteolysis; assay type: in vivo, NOD.SCID mice; details: treated 3 days post tumor cell injection, sacrificed 30 days
Text: (§1) All procedures involving mice and experimental protocols were approved by the Institutional Animal Care and Use Committee (IACUC) of the University of Utah. The RonTK−/− mice which reside on the FVB background, were crossed with NOD.SCID mice for an immune-compromised mouse model. As a control, wild-type FVB mice were also crossed with NOD.SCID mice. The STK−/− mice, which are on a C57BL/6 background, were compared to wild-type C57BL/6 mice as controls. Mice for all experiments were 6 to 8 weeks of age. For intratibial injections, 1×10^5 (PyMTor DU4475) or 3×10^5 (MDA-MB-231) tumor cells were resuspended in 10 μL matrigel and injected into the right tibia of anesthetized female FVB (PyMT) or NOD.SCID mice carrying various alleles of RON. Osteolysis was assessed by X-ray radiography. Dissected hindlimbs from mice sacrificed at the final time point in each experiment were placed in the Kodak In-vivo Multispectral Imaging System FX and exposed to X-ray radiography at 35 kV for 100 sec. Excess tumor tissue was removed from the bones prior to X-ray. Osteolytic lesions were quantified using Image J software (NCBI). All images were compared to the contralateral leg as an internal control.
(§2) For in vivo experiments, the OSI-296 inhibitor was dissolved in 40% Trappsol with 0.01 M HCl, and mice were treated at a concentration of 200 mg/kg daily by oral gavage. […]

[3] = test system: PyMT control tumor cells; assay: Intratibial PyMT control tumor-induced osteolysis; assay type: in vivo, mice; details: WT mice, treatment began 3 days post injection, sacrificed 42 days post injection
Text: as §1, §2

[4] = molecular target: RON (Homo sapiens, UniProt Q04912); details: from the cited IC50 values; cited from earlier work
[5] = test system: bone marrow osteoclasts; assay: Osteoclast resorption assay; assay type: cell-based, mice; details: WT osteoclasts, inhibitors 10 μM or muRANK-Fc 10 μg/mL daily day 9 to 12
Method: Bone marrow osteoclasts were generated from 6 to 8 week old WT and RonTK−/− mice. Briefly, bone marrow was isolated from hindlimb bones and plated in α-MEM media containing 10% heat-inactivated fetal bovine serum (FBS, Sigma, St. Louis, Mo.), 100 units/mL penicillin-streptomycin (Hyclone), and 33 ng/mL human macrophage colony-stimulating factor (hM-CSF) (PeproTech, Rocky Hill, N.J.) for 24 hours. Non-adherent cells were collected and frozen for later use. To assess resorption activity, bone marrow precursor cells were thawed and seeded at a density of 1×10^5 cells per well in BioCoat Osteologic slides (BD Biosciences, San Jose, Calif.) in α-MEM media containing 10% FBS and antibiotics. After adhering overnight, media was removed and media containing 33 ng/mL hM-CSF and 9 ng/mL muRANKL (R & D systems, Minneapolis, Minn.) was added. The medium was changed every 3 days depending on acidification, and the assay was terminated as indicated. Recombinant human MSP was prepared and added daily as indicated. Cells were removed with 6% bleach and slides were viewed microscopically using phase-contrast with 20× magnification. Osteolytic resorption area within 5 representative fields was determined using Image J software, experiments were performed in triplicate. […]

[6] = test system: PyMT-MSP tumor cells; assay: Intratibial PyMT-MSP tumor-induced osteolysis; assay type: in vivo, mice
Text: as §1
Hindlimb bones were excised from mice at the time of sacrifice and bones were fixed in 10% neutral-buffered formalin, decalcified in Formical-2000 (Decal Corporation, Tallman, N.Y.) for 8 days and embedded in paraffin for hematoxylin and eosin (H & E) or immunohistochemical staining. Osteoclast number was assessed as TRAP^+ multinucleated cells containing 4 or more nuclei and reported as TRAP^+ cells per field. Three sections per mouse and 5 fields per section were used for quantification with fields representing the entire length of the tibia. Tumor proliferation rate was reported as the number of cells which were positive for phospho-H3 staining compared to the number of unstained cells per field expressed as a percent. Three sections per mouse and 5 fields per section were used for quantification with analysis being restricted to within the bone marrow cavity. Immunohistochemical analysis was performed with heat-induced antigen retrieval in sodium-citrate buffer (Dako, Denmark). Primary antibodies used were anti-TRAP at 1:50 (Santa Cruz, sc-30833, Dallas, Tex.), anti-Ki67 at 1:100 (Santa Cruz, sc-12202S, Dallas, Tex.), anti-phosphoH3 at 1:100 (Cell Signaling, #9701, Beverly, Mass.), anti-NFATc1 at 1:50 (Santa Cruz, sc-13033, Dallas, Tex.), and anti-RON at 1:250 (Santa Cruz, sc-322, Dallas, Tex.). Bones from mice lacking RON were used as a negative control. Biotinylated secondary antibody was used with the EnVision^+ system HRP kit (Dako, Denmark) and nuclei counterstained with hematoxylin.
For in vivo experiments, the OSI-296 inhibitor was dissolved in 40% Trappsol with 0.01 M HCl, and mice were treated at a concentration of 200 mg/kg daily by oral gavage. Treatment began either 3 days after tumor cell injection for prophylactic experiments, or 3 weeks after tumor cell injection for therapeutic experiments. ASLAN002 was dissolved in 70% PEG400 with 1×PBS and mice were treated at a concentration of 50 mg/kg daily by oral gavage. muRANK-Fc was given at a concentration of 10 mg/kg every three days by intra-peritoneal injection. For the osteoporosis study, mice were treated beginning on the day after ovary removal. The treatment regimen for OSI-296 was 200 mg/kg every other day by oral gavage. ASLAN002 was administered at 50 mg/kg every other day by oral gavage. Treatment continued until the time of sacrifice at 28 days.

Sequence of RON (Q04912 25-1400): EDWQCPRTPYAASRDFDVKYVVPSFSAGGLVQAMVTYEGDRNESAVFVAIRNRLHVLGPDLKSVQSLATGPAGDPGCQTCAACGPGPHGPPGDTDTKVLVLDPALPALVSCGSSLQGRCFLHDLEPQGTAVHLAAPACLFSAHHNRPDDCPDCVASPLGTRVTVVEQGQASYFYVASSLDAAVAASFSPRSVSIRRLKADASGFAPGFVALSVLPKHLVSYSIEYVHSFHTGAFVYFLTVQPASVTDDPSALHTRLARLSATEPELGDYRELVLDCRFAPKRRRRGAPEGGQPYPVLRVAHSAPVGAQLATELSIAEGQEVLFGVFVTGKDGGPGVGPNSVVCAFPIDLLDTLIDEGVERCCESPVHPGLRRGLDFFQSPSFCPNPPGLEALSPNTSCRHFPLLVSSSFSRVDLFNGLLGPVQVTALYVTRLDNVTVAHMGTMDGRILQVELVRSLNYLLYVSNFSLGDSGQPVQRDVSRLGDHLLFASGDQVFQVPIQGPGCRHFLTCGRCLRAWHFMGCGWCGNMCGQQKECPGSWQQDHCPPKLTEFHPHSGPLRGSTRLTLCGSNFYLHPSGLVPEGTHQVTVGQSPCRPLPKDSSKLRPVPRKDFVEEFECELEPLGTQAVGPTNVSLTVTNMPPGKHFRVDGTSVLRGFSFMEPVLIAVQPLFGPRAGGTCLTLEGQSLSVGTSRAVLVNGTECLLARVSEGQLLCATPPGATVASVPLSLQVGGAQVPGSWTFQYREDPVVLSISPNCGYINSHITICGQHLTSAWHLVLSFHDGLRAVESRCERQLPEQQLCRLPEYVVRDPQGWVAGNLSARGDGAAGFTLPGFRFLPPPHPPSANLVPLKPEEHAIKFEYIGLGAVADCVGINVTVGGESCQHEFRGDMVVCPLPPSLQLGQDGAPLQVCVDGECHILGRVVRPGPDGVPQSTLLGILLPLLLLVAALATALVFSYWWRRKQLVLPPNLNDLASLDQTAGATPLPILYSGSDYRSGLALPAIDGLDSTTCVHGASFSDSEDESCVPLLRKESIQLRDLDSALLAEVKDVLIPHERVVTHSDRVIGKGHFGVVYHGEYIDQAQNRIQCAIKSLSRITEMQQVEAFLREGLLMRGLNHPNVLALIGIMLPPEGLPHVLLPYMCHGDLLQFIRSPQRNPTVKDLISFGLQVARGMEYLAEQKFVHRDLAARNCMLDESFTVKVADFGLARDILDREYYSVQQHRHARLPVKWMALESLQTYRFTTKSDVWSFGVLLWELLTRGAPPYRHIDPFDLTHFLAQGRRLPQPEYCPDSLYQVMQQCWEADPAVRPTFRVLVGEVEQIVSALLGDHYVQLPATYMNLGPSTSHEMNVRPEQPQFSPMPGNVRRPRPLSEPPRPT

Row | Compound | MSP-mediated osteoclast survival [1] | osteolysis from MSP-expressing MDA-MB-231 tumor cells [2] | osteolysis from PyMT control tumors (no MSP) [3] | selectivity between RON and Met [4] | MSP-induced increase in osteoclast resorption (resorption area) [5] | inhibition of osteolysis ([6]; PyMT-MSP tumors, treatment beginning three days after tumor injection, average) | TRAP+ osteoclasts in tumor-bearing bones ([6]; TRAP staining of bone sections) | PyMT-MSP tumor growth in the bone ([6]; caliper measurements) | PyMT-MSP tumor proliferation rate in the bone ([6]; percent cells positive for phospho-H3) | progression of existing tumor-induced bone loss ([6]; post osteolysis treatment, about three weeks after tumor injection)
1 | CN1CCN(CCOc2cc(OC3CCOCC3)c3c(Nc4c(Cl)ccc5c4OCO5)ncnc3c2)CC1 [AZD0530] | blocked MSP-mediated survival | – | – | – | – | – | – | – | – | –
2 | C[C@@H](Oc1c(N)ncc2c(C3=CCN(C(N)=O)CC3)coc12)c1c(Cl)ccc(F)c1Cl [OSI-296] | – | reduce MSP-mediated osteolysis to levels seen in control tumor cells | did not have an effect | more selective for Met | dramatically reduced | 4-6 fold | no significant effect | reduced | reduced | prevent further tumor-induced bone loss
